Data taken from PubChem BioAssay (NCI).
In brackets after ≈: the same amount, converted by molar mass. Several values for one entry are separate records, joined by “and”; a condition that tells them apart may be missing. Identical values can stand only once.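 Five compound concentrations were applied to cells in 96-well plates for 48 hours; endpoints were derived by simple linear interpolation of the resulting dose-response curve. GI50: concentration for 50% inhibition of growth. The concentration for full growth arrest is given as TGI.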

What was measured:
Assay in all cases: growth of human tumour cells (NCI), 48 h
DLD-1 colon = test system: DLD-1 colon
MDA-MB-435 = test system: MDA-MB-435
CAKI-1 renal = test system: CAKI-1 renal
SK-MEL-5 melanoma = test system: SK-MEL-5 melanoma
RPMI-8226 leukemia = test system: RPMI-8226 leukemia
NCI/ADR-RES ovarian = test system: NCI/ADR-RES ovarian
NCI-H226 lung = test system: NCI-H226 lung
RXF 393 renal = test system: RXF 393 renal
LXFL 529 NSCLC = test system: LXFL 529 NSCLC
A549 NSCLC = test system: A549 NSCLC

SMILES	TGI (DLD-1 colon)	TGI (MDA-MB-435) [µM]	TGI (CAKI-1 renal)	TGI (SK-MEL-5 melanoma)	TGI (RPMI-8226 leukemia)	TGI (NCI/ADR-RES ovarian)	TGI (NCI-H226 lung)	TGI (RXF 393 renal)	TGI (LXFL 529 NSCLC) [µM]	TGI (A549 NSCLC)	GI50 (DLD-1 colon)	GI50 (CAKI-1 renal) [µg/mL]	GI50 (SK-MEL-5 melanoma) [µg/mL]	GI50 (RPMI-8226 leukemia) [µg/mL]	GI50 (NCI/ADR-RES ovarian) [µg/mL]	GI50 (NCI-H226 lung) [µg/mL]	GI50 (RXF 393 renal)	GI50 (A549 NSCLC) [µg/mL]
COC1/C=C/OC2(C)Oc3c(C)c(O)c4c(c3C2=O)C(=O)C=C(NC(=O)/C(C)=C\C=C\C(C)C(OC=O)C(C)C(O)C(C)C(OC(C)=O)C1C)C4=O (stereo not drawn)	23.3 µM	33.3	28.3 µM	31.6 µM	24.2 µM	49.2 µM	21.5 µM	19 µM	19	39.7 µM	–	–	–	–	–	–	–	–
N#CC(C#N)SCc1ccccc1	> 100 µM	35.7	> 100 µM	> 85.6 µM	> 38.6 µM	> 100 µM	76.6 µM	79 µM	> 100	> 100 µM	–	–	–	–	–	–	–	–
CSc1ccc(/C=C2\CNC/C(=C\c3ccc(SC)cc3)C2=O)cc1	> 371 µM and 150 µg/mL	> 371	150 µg/mL	> 371 µM and 150 µg/mL	> 371 µM and 150 µg/mL	150 µg/mL	104 µM and 150 µg/mL	81.1 µM and 34.2 µg/mL	68.6	> 371 µM and 150 µg/mL	45.1 µM and 142 µg/mL	90.3 (≈ 246 µM)	150 (≈ 408 µM)	61.9 (≈ 168 µM)	150 (≈ 408 µM)	99.7 (≈ 271 µM)	74 µM and 10.8 µg/mL	150 (≈ 408 µM)
